Target: T1, intestinal alpha glucosidase (maltase activity)
T1 construct: gene Mgam; mixture of intestinal alpha-glucosidases
Assay: maltose hydrolysis, glucose by glucose oxidase (GOD-PAP)
Assay type: biochemical, Rattus norvegicus
Conditions: 25 mM maltose, 100 mM phosphate pH 7.2, 37°C, 30 min; mucosal enzyme preparation
Source text: maltose hydrolysis, glucose by glucose oxidase (GOD-PAP) on intestinal alpha glucosidase (maltase activity)

Acarbose / IC50: 60 µg/mL
Structure (SMILES): C[C@H]1O[C@H](O[C@H]2[C@H](O)[C@@H](O)[C@@H](O[C@H]3[C@H](O)[C@@H](O)C(O)O[C@@H]3CO)O[C@@H]2CO)[C@H](O)[C@@H](O)[C@@H]1N[C@H]1C=C(CO)[C@@H](O)[C@H](O)[C@H]1O (stereo partly shown) [acarbose]
